Laboratory results: paper PMC8621456, “New Investigations with Lupane Type A-Ring Azepane Triterpenoids for Antimycobacterial Drug Candidate Design” (International Journal of Molecular Sciences, 2021)
Values after ≈ are worked out from the molar mass of the structure shown. Read-outs that look alike come from different tables or passages of the source. Marks after values point to notes of the source that are not given here.

Columns and labels:
[1] = tested on: M. tuberculosis strain H37Rv; format: cell-based, Mycobacterium tuberculosis; details: 2× the MIC
H37Rv (gyrA^D94K) [2] = details: cited from earlier work
H37Rv (rpoB^S450L) [3] = details: cited from earlier work
H37Rv (katG^del) = test: microbe, parasite or virus in culture; format: cell-based; details: Mycobacterium tuberculosis, isoniazid mono-resistant strain
H37Rv (gyrA^D94K) [4] = format: cell-based, Mycobacterium tuberculosis
H37Rv (rpoB^S450L) [5] = format: cell-based, Mycobacterium tuberculosis

SMILES	FoR (order of magnitude stated in text) [1]	MIC (µM) H37Rv (gyrA^D94K) (H37Rv (gyrA^D94K) [2])	MIC (µM) H37Rv (rpoB^S450L) (H37Rv (rpoB^S450L) [3])	MIC (H37Rv (katG^del)) [µM]	MIC (µM) H37Rv (gyrA^D94K) (H37Rv (gyrA^D94K) [4]) [µM]	MIC (µM) H37Rv (rpoB^S450L) (H37Rv (rpoB^S450L) [5]) [µM]
C=C(C)[C@@H]1CC[C@]2(CO)CC[C@]3(C)[C@H](CC[C@@H]4[C@@]5(C)CCCNC(C)(C)[C@@H]5CC[C@]43C)[C@@H]12 [Compound 1, azepanobetulin]	10^−6	4 * µM	4 * µM			
C=C(C)[C@@H]1CC[C@]2(C)CC[C@]3(C)[C@H](CC[C@@H]4[C@@]5(C)CCCNC(C)(C)[C@@H]5CC[C@]43C)[C@@H]12 [Compound 2, azepano-lupeol]				4 (≈ 1.7 µg/mL)	4 (≈ 1.7 µg/mL)	4 (≈ 1.7 µg/mL)
C=C(C)[C@@H]1CC[C@]2(CN)CC[C@]3(C)[C@H](CC[C@@H]4[C@@]5(C)CCCNC(C)(C)[C@@H]5CC[C@]43C)[C@@H]12 [Compound 3]				4 (≈ 1.76 µg/mL)	8 (≈ 3.53 µg/mL)	4 (≈ 1.76 µg/mL)
C=C(C)[C@@H]1CC[C@]2(COC(=O)c3ccccc3C(=O)O)CC[C@]3(C)[C@H](CC[C@@H]4[C@@]5(C)CCCNC(C)(C)[C@@H]5CC[C@]43C)[C@@H]12 [Compound 4]				8 (≈ 4.72 µg/mL)	16 (≈ 9.44 µg/mL)	8 (≈ 4.72 µg/mL)
C=C(C)[C@@H]1CC[C@]2(COC(=O)c3cccnc3)CC[C@]3(C)[C@H](CC[C@@H]4[C@@]5(C)CCCNC(C)(C)[C@@H]5CC[C@]43C)[C@@H]12 [Compound 5]				4 (≈ 2.19 µg/mL)	8 (≈ 4.37 µg/mL)	8 (≈ 4.37 µg/mL)
C=C(C)[C@@H]1CC[C@]2(COS(=O)(=O)c3ccc(C)cc3)CC[C@]3(C)[C@H](CC[C@@H]4[C@@]5(C)CCCNC(C)(C)[C@@H]5CC[C@]43C)[C@@H]12 [Compound 6]				4 (≈ 2.38 µg/mL)	4 (≈ 2.38 µg/mL)	4 (≈ 2.38 µg/mL)
C=C(C)[C@@H]1CC[C@]2(C=NNC(=O)c3ccncc3)CC[C@]3(C)[C@H](CC[C@@H]4[C@@]5(C)CCCNC(C)(C)[C@@H]5CC[C@]43C)[C@@H]12 [Compound 7]				8 (≈ 4.47 µg/mL)	0.5 (≈ 0.279 µg/mL)	0.5 (≈ 0.279 µg/mL)
C=C(C)[C@@H]1CC[C@]2(C(=O)NC(CO)Cc3ccccc3)CC[C@]3(C)[C@H](CC[C@@H]4[C@@]5(C)CCCNC(C)(C)[C@@H]5CC[C@]43C)[C@@H]12 (some centres unmarked) [Compound 8]				4 (≈ 2.36 µg/mL)	4 (≈ 2.36 µg/mL)	4 (≈ 2.36 µg/mL)
C=C(C)[C@@H]1CC[C@]2(C(=O)N3CCN(C)CC3)CC[C@]3(C)[C@H](CC[C@@H]4[C@@]5(C)CCCNC(C)(C)[C@@H]5CC[C@]43C)[C@@H]12 [Compound 9]				1 (≈ 0.538 µg/mL)	2 (≈ 1.08 µg/mL)	2 (≈ 1.08 µg/mL)
C=C(C)[C@@H]1CC[C@]2(C(=O)NC3CCCCC3)CC[C@]3(C)[C@H](CC[C@@H]4[C@@]5(C)CCCNC(C)(C)[C@@H]5CC[C@]43C)[C@@H]12 [Compound 10]				4 (≈ 2.15 µg/mL)	4 (≈ 2.15 µg/mL)	4 (≈ 2.15 µg/mL)
C=C(C)[C@@H]1CC[C@]2(COC(C)=O)CC[C@]3(C)[C@H](CC[C@@H]4[C@@]5(C)CCCN(C(C)=O)C(C)(C)[C@@H]5CC[C@]43C)[C@@H]12 [Compound 11]					8 (≈ 4.21 µg/mL)	4 (≈ 2.1 µg/mL)
C=C(C)[C@@H]1CC[C@]2(COC(C)=O)CC[C@]3(C)[C@H](CC[C@@H]4[C@@]5(C)CCCN(C(=O)c6cccnc6)C(C)(C)[C@@H]5CC[C@]43C)[C@@H]12 [Compound 12]					>32	32 (≈ 18.8 µg/mL)
CC(=O)[C@@H]1CC[C@]2(COS(=O)(=O)c3ccc(C)cc3)CC[C@]3(C)[C@H](CC[C@@H]4[C@@]5(C)CCCNC(C)(C)[C@@H]5CC[C@]43C)[C@@H]12 [Compound 13]				8 (≈ 4.78 µg/mL)	16 (≈ 9.57 µg/mL)	8 (≈ 4.78 µg/mL)
C=C(CBr)[C@@H]1CC[C@]2(COC(C)=O)CC[C@]3(C)[C@H](CC[C@@H]4[C@@]5(C)CCCNC(C)(C)[C@@H]5CC[C@]43C)[C@@H]12 [Compound 14]				16 (≈ 9 µg/mL)	>32	>32
C=C(CN=[N+]=[N-])[C@@H]1CC[C@]2(COC(C)=O)CC[C@]3(C)[C@H](CC[C@@H]4[C@@]5(C)CCCNC(C)(C)[C@@H]5CC[C@]43C)[C@@H]12 [Compound 15]				32 (≈ 16.8 µg/mL)	>32	>32
CC1(C)CCC23CCC4(C)C(CCC5C6(C)CCCNC(C)(C)C6CCC54C)C2C1OC3 (centres unmarked) [Compound 17]				8 (≈ 3.53 µg/mL)	16 (≈ 7.07 µg/mL)	8 (≈ 3.53 µg/mL)
CC(C)=C1CCC=C2CC[C@]3(C)[C@H](CC[C@@H]4[C@@]5(C)CCCNC(C)(C)[C@@H]5CC[C@]43C)[C@H]21 [Compound 18]	10^−6				8 (≈ 3.39 µg/mL)	16 (≈ 6.78 µg/mL)
C#CCNC(=O)[C@]12CC[C@@H](C(=C)C)[C@@H]1[C@H]1CC[C@@H]3[C@@]4(C)CCCNC(C)(C)[C@@H]4CC[C@@]3(C)[C@]1(C)CC2 [Compound 20, 17-(Propargyl)-3-deoxo-3a-homo-3a-aza-lup-20(29)-en-carboxamide]				4 (≈ 1.97 µg/mL)	4 (≈ 1.97 µg/mL)	8 (≈ 3.94 µg/mL)
NNC(=O)c1ccncc1 [Isoniazid, reference compound]	10^−4			> 2	0.06 (≈ 0.00823 µg/mL)	0.06 (≈ 0.00823 µg/mL)
COc1c(N2C[C@@H]3CCCN[C@@H]3C2)c(F)cc2c(=O)c(C(=O)O)cn(C3CC3)c12 [Moxifloxacin, reference compound]				0.03 (≈ 0.012 µg/mL)	>2	0.03 (≈ 0.012 µg/mL)
O=[N+]([O-])c1cn2c(n1)OC[C@@H](OCc1ccc(OC(F)(F)F)cc1)C2 [Pretomanid, reference compound]				0.06 (≈ 0.0216 µg/mL)	0.125 (≈ 0.0449 µg/mL)	0.06 (≈ 0.0216 µg/mL)
CO[C@H]1/C=C/O[C@@]2(C)Oc3c(C)c(O)c4c(O)c(c(/C=N/N5CCN(C)CC5)c(O)c4c3C2=O)NC(=O)/C(C)=C\C=C\[C@H](C)[C@H](O)[C@@H](C)[C@@H](O)[C@@H](C)[C@H](OC(C)=O)[C@@H]1C [Rifampin, reference compound]				≤ 0.004	≤0.004	>1
